According to US20170298056A1, “SMALL MOLECULE INHIBITORS OF HIV-1 ENTRY AND METHODS OF USE THEREOF” (Dana-Farber Cancer Institute, Inc., priority 2014, published 2017):

Columns and labels:
[1] = test system: HXBc2-YU2 Chimeras (CCR5-tropic); test: Viral infection assay, HXBc2-YU2 chimeras (CCR5-tropic); type: cell-based, HIV-1
Procedure: Production of recombinant HIV-1 expressing luciferase. […] After 48 hours, the supernatant was collected, buffered with 50 mM Hepes pH 7.4 (final concentration) and centrifuged for 5 minutes at 750×g and 4° C. The virus-containing supernatant was used directly or frozen at −80° C.
Viral infection assay. Each test compound was serially diluted in DMSO in a 96-well B&W isoplate (PerkinElmer, Boston, Mass.) using an HP D300 Digital Dispenser, to a final volume of 450 nl. DMSO was used as a control. Viruses pseudotyped with a specific Env were added to each well and incubated briefly at room temperature. Cf2Th-CD4/CCR5 cells were detached with StemPro Accutase Cell Dissociation Reagent (Invitrogen, cat #A11105-01), washed once, and 5000 cells were added to each well. […] Following incubation, the medium was aspirated and cells were lysed with 30 μl of Passive Lysis Buffer (Promega, cat #E1941). The activity of the firefly luciferase, which was used as a reporter protein in the system, was measured with a Centro LB 960 luminometer (Berthold Technologies, Oak Ridge, Tenn.). One hundred microliters of assay buffer (15 mM MgSO4, 15 mM KH2PO4/K2HPO4 pH 7.8, 1 mM ATP and 1 mM DTT) was injected to each well, followed by a 50 μl injection of 1 mM Dluciferin potassium salt (BD Pharmingen, San Jose, Calif.); luminescence was measured for 2 sec. […]

HIV-1MN27 = test: Viral infection assay, CXCR4-tropic virus, Cf2Th-CD4/CXCR4 cells; type: cell-based; settings: HIV-1MN27, Cf2Th cells expressing CD4 and CXCR4
HIV-1JR-FL = test: Infection of human PBMC by HIV-1JR-FL; type: cell-based; settings: HIV-1JR-FL infection of human PBMC
Procedure: Peripheral blood mononuclear cells (PBMC). Human blood was purchased from Research Blood Components, who obtained a consent firm from each donor, according to the American Association of Blood Banks guidelines, PBMC were isolated from the whole blood using a Ficoll-Paque gradient (Ficoll-Paque PLUS, Amersham Biosciences) and activated at concentration of 10^6 live cells/ml for 3 days in RPMI-PBMC medium (RPMI-1640 supplemented with 20% FBS, 10% IL-2 (Hemagen, Columbia, Md.), 100 μg/ml primocin (InvivoGen, San Diego, Calif.)) with 4 μg/ml phytohemagglutinin (Sigma-Aldrich, St. Louis, Mo.). In some cases, cells were frozen, thawed and activated prior to the assay.
Viral infection assay. Each test compound was serially diluted in DMSO in a 96-well B&W isoplate (PerkinElmer, Boston, Mass.) using an HP D300 Digital Dispenser, to a final volume of 450 nl. DMSO was used as a control. […] The activity of the firefly luciferase, which was used as a reporter protein in the system, was measured with a Centro LB 960 luminometer (Berthold Technologies, Oak Ridge, Tenn.). One hundred microliters of assay buffer (15 mM MgSO4, 15 mM KH2PO4/K2HPO4 pH 7.8, 1 mM ATP and 1 mM DTT) was injected to each well, followed by a 50 μl injection of 1 mM Dluciferin potassium salt (BD Pharmingen, San Jose, Calif.); luminescence was measured for 2 sec. […]

CEM #21 cells = test: Viability assay, CEM#21 target cells; type: cell-based
Procedure: H-JRFL#1336 (effector) and H-Fluc4 (control) cells were grown in DMEM containing 10% FBS, 100 μg/ml streptomycin, 100 units/ml penicillin, 200 μg/ml G418, 1 μg/ml puromycin and 2 μg/ml doxycycline. H-JRFL#13 cells carry an HIV-1JR-FL env gene that is induced by growing the cells in the absence of doxycycline (Tet-Off expression system). H-Fluc4 cells, which carry a firefly luciferase gene that is induced in the absence of doxycycline, were used as specificity controls. Both cell lines were derived from HeLa cells and constitutively express the tetracycline-regulated transactivator (Tet-Off expression system). CEM#21 target cells were grown in RPMI containing 10% FBS, 100 μg/ml streptomycin, 100 units/ml penicillin and 1 μg/ml puromycin. […]
Viability Assay. […] The plate was equilibrated to room temperature, 15 μl of CellTiterGlo (Promega) was added to each well and luminescence was measured as described above. […] 30 μl (Cf2Th cells) or 100 μl (PBMC) of CellTiterGlo was added and luminescence was measured as described above.

O=C(N/N=C/c1ccc(O)cc1)Nc1cccc2nsnc12 [Compound 18A]
IC50 ([1]; HXBc2 (YU2 V3) chimera): 20.2 ± 2.2 µM | IC50 ([1]; HXBc2 (YU2 V123) chimera): 12.5 ± 1.6 µM | IC50 (HIV-1MN27): ~25 µM | IC50 (HIV-1JR-FL): 0.4 µM | CC50 (CEM #21 cells): 26.6 ± 2.1 µM
